Each structure is given as a SMILES string.

As a reminder, the melting point is the temperature, or range, at which the solid turns liquid. As for `CS(=O)(=O)c1ccc(Oc2cc(OC3CCOCC3)c3[nH]c(C4=NCC(CC(N)=O)S4)cc3c2)cc1` (centres unmarked) [Example 5, 2-(2-{5-[4-(Methylsulfonyl)phenoxy]-7-(tetrahydro-2H-pyran-4-yloxy)-1H-indol-2-yl}-4,5-dihydro-1,3-thiazol-5-yl)acetamide], the melting point fell in the range of 176 to 177 °C. Consider `CS(=O)(=O)c1ccc(Oc2cc(OC3CCOCC3)c3[nH]c(C4=NCC(CCO)S4)cc3c2)nc1` (centres unmarked) [Example 13, 2-{2-[5-{[5-(Methylsulfonyl)pyridin-2-yl]oxy}-7-(tetrahydro-2H-pyran-4-yloxy)-1H-indol-2-yl]-4,5-dihydro-1,3-thiazol-5-yl}ethanol], for which the melting point lay in the range of 165 to 166 °C. Next, `CS(=O)(=O)c1ccc(Oc2cc(OC3CCOCC3)c3[nH]c(C4=NCC(CC(N)=O)S4)cc3c2)nc1` (centres unmarked) [Example 16, 2-{2-[5-{[5-(Methylsulfonyl)pyridin-2-yl]oxy}-7-(tetrahydro-2H-pyran-4-yloxy)-1H-indol-2-yl]-4,5-dihydro-1,3-thiazol-5-yl}acetamide]: 188 to 190 °C. `CS(=O)(=O)c1ccc(Oc2cc(OC3CCOCC3)c3[nH]c(C4=NCC(CC(=O)N5CC(O)C5)S4)cc3c2)nc1` (centres unmarked) [Example 18, 1-({2-[5-{[5-(Methylsulfonyl)pyridin-2-yl]oxy}-7-(tetrahydro-2H-pyran-4-yloxy)-1H-indol-2-yl]-4,5-dihydro-1,3-thiazol-5-yl}acetyl)azetidin-3-ol] yielded a melting point of 180 to 181 °C. As for `CS(=O)(=O)Cc1ccc(Oc2cc(OC3CCOCC3)c3[nH]c(C4=NCC(CC(N)=O)S4)cc3c2)cn1` (centres unmarked) [Example 26, 2-{2-[5-({6-[(Methylsulfonyl)methyl]pyridin-3-yl}oxy)-7-(tetrahydro-2H-pyran-4-yloxy)-1H-indol-2-yl]-4,5-dihydro-1,3-thiazol-5-yl}acetamide], the melting point lay in the range of 164 to 167 °C.

As for `CNC(=O)CC1CN=C(c2cc3cc(Oc4ccc(CS(C)(=O)=O)nc4)cc(OC4CCOCC4)c3[nH]2)S1` (centres unmarked) [Example 27, N-Methyl-2-{2-[5-({6-[(methylsulfonyl)methyl]pyridin-3-yl}oxy)-7-(tetrahydro-2H-pyran-4-yloxy)-1H-indol-2-yl]-4,5-dihydro-1,3-thiazol-5-yl}acetamide], the melting point was 157 to 158 °C.

As for `CS(=O)(=O)c1ccc(Oc2cc(OC3CCOCC3)c3[nH]c(C4=NCC(CC(N)=O)S4)cc3c2)cn1` (centres unmarked) [Example 31, 2-{2-[5-{[6-(Methylsulfonyl)pyridin-3-yl]oxy}-7-(tetrahydro-2H-pyran-4-yloxy)-1H-indol-2-yl]-4,5-dihydro-1,3-thiazol-5-yl}acetamide], the melting point was 136 to 138 °C. Next, `CNC(=O)CC1CN=C(c2cc3cc(Oc4ccc(S(C)(=O)=O)nc4)cc(OC4CCOCC4)c3[nH]2)S1` (centres unmarked) [Example 34, N-methyl-2-{2-[5-{[6-(Methylsulfonyl)pyridin-3-yl]oxy}-7-(tetrahydro-2H-pyran-4-yloxy)-1H-indol-2-yl]-4,5-dihydro-1,3-thiazol-5-yl}acetamide]: 143 to 144 °C; `CC(C)(O)CNC(=O)CC1CN=C(c2cc3cc(Oc4ccc(S(C)(=O)=O)nc4)cc(OC4CCOCC4)c3[nH]2)S1` (centres unmarked) [Example 39, N-(2-Hydroxy-2-methylpropyl)-2-{2-[5-{[6-(methylsulfonyl)pyridin-3-yl]oxy}-7-(tetrahydro-2H-pyran-4-yloxy)-1H-indol-2-yl]-4,5-dihydro-1,3-thiazol-5-yl}acetamide]: 195 to 196 °C.

Compound `CC1(CNC(=O)CC2CN=C(c3cc4cc(Oc5ccc(S(C)(=O)=O)nc5)cc(OC5CCOCC5)c4[nH]3)S2)COC1` (centres unmarked) [Example 40, N-[(3-Methyloxetan-3-yl)methyl]-2-{2-[5-{[6-(methylsulfonyl)pyridin-3-yl]oxy}-7-(tetrahydro-2H-pyran-4-yloxy)-1H-indol-2-yl]-4,5-dihydro-1,3-thiazol-5-yl}acetamide] yielded a melting point of 189 to 190 °C. Next, `CS(=O)(=O)c1ccc(Oc2cc(OC3CCOCC3)c3[nH]c(C4=NCC(CC(=O)NCCO)S4)cc3c2)cn1` (centres unmarked) [Example 44, N-(2-Hydroxyethyl)-2-{2-[5-{[6-(methylsulfonyl)pyridin-3-yl]oxy}-7-(tetrahydro-2H-pyran-4-yloxy)-1H-indol-2-yl]-4,5-dihydro-1,3-thiazol-5-yl}acetamide]: 157 to 158 °C; `CS(=O)(=O)c1ccc(Oc2ccc3[nH]c(C4=NCC(CC(=O)O)S4)cc3c2)cn1` (centres unmarked) [Example 52, [2-(5-{[6-(Methylsulfonyl)pyridin-3-yl]oxy}-1H-indol-2-yl)-4,5-dihydro-1,3-thiazol-5-yl]acetic acid]: 205 to 208 °C; `CCc1cc(Oc2ccc(S(C)(=O)=O)nc2)cc2cc(C3=NCC(CC(=O)O)S3)[nH]c12` (centres unmarked) [Example 60, [2-(7-Ethyl-5-{[6-(methylsulfonyl)pyridin-3-yl]oxy}-1H-indol-2-yl)-4,5-dihydro-1,3-thiazol-5-yl]acetic acid]: 230 to 232 °C. As to `CCc1cc(Oc2ccc(S(C)(=O)=O)nc2)cc2cc(C3=NCC(CC(=O)NC)S3)[nH]c12` (centres unmarked) [Example 62, 2-[2-(7-Ethyl-5-{[6-(methylsulfonyl)pyridin-3-yl]oxy}-1H-indol-2-yl)-4,5-dihydro-1,3-thiazol-5-yl]-N-methylacetamide], the melting point is 189 to 190 °C.

In the case of `CCNC(=O)CC1CN=C(c2cc3cc(Oc4ccc(S(C)(=O)=O)nc4)cc(CC)c3[nH]2)S1` (centres unmarked) [Example 63, N-Ethyl-2-[2-(7-ethyl-5-{[6-(methylsulfonyl)pyridin-3-yl]oxy}-1H-indol-2-yl)-4,5-dihydro-1,3-thiazol-5-yl]acetamide], the melting point was in the range of 227 to 229 °C.

On to `CN(C)C(=O)CC1CN=C(c2cc3cc(Oc4ccc(S(C)(=O)=O)nc4)ccc3[nH]2)S1` (centres unmarked) [Example 64, N,N-Dimethyl-2-[2-(5-{[6-(methylsulfonyl)pyridin-3-yl]oxy}-1H-indol-2-yl)-4,5-dihydro-1,3-thiazol-5-yl]acetamide], for which the melting point was in the range of 190 to 191 °C. Next, `COCCNC(=O)CC1CN=C(c2cc3cc(Oc4ccc(S(C)(=O)=O)nc4)ccc3[nH]2)S1` (centres unmarked) [Example 66, N-(2-Methoxyethyl)-2-[2-(5-{[6-(methylsulfonyl)pyridin-3-yl]oxy}-1H-indol-2-yl)-4,5-dihydro-1,3-thiazol-5-yl]acetamide]: 174 to 175 °C; `CS(=O)(=O)c1ccc(Oc2ccc3[nH]c(C4=NCC(CC(=O)N5CCOCC5)S4)cc3c2)cn1` (centres unmarked) [Example 68, 5-{[6-(Methylsulfonyl)pyridin-3-yl]oxy}-2-[5-(2-morpholin-4-yl-2-oxoethyl)-4,5-dihydro-1,3-thiazol-2-yl]-1H-indole]: 168 to 169 °C; `Cc1cc(Oc2ccc(S(C)(=O)=O)nc2)cc2cc(C3=NCC(CC(=O)O)S3)[nH]c12` (centres unmarked) [Example 71, [2-(7-Methyl-5-{[6-(methylsulfonyl)pyridin-3-yl]oxy}-1H-indol-2-yl)-4,5-dihydro-1,3-thiazol-5-yl]acetic acid]: 248 to 249 °C. For the compound `Cc1cc(Oc2ccc(S(C)(=O)=O)nc2)cc2cc(C3=NCC(CC(=O)NCC(C)(C)O)S3)[nH]c12` (centres unmarked) [Example 75, N-(2-Hydroxy-2-methylpropyl)-2-[2-(7-methyl-5-{[6-(methylsulfonyl)pyridin-3-yl]oxy}-1H-indol-2-yl)-4,5-dihydro-1,3-thiazol-5-yl]acetamide], the melting point is 184 to 186 °C. `Cc1cc(Oc2ccc(S(C)(=O)=O)nc2)cc2cc(C3=NCC(CC(=O)NC[C@H](C)O)S3)[nH]c12` (stereo partly drawn) [Example 76, N-[(2S)-2-Hydroxypropyl]-2-[2-(7-methyl-5-{[6-(methylsulfonyl)pyridin-3-yl]oxy}-1H-indol-2-yl)-4,5-dihydro-1,3-thiazol-5-yl]acetamide] came in with a melting point of 170 to 171 °C.

On to `Cc1cc(Oc2ccc(S(C)(=O)=O)nc2)cc2cc(C3=NCC(CC(=O)NC[C@@H](C)O)S3)[nH]c12` (stereo partly drawn) [Example 77, N-[(2R)-2-Hydroxypropyl]-2-[2-(7-methyl-5-{[6-(methylsulfonyl)pyridin-3-yl]oxy}-1H-indol-2-yl)-4,5-dihydro-1,3-thiazol-5-yl]acetamide], for which the melting point was in the range of 168 to 169 °C.

As for `CNC(=O)CC1CN=C(c2cc3cc(Oc4ccc(S(C)(=O)=O)nc4)ccc3[nH]2)S1` (centres unmarked) [Example 79], the melting point lay in the range of 172 to 173 °C.

For the origin of these results see patent US8557805B2, “Fused ring compound and use thereof” (Takeda Pharmaceutical Company Limited, priority 2008, dated 2013).
